Experimental data taken from publication PMC7442270, “Phase 3 Trial of a Small-volume Subcutaneous 6-Month Duration Leuprolide Acetate Treatment for Central Precocious Puberty” (The Journal of Clinical Endocrinology and Metabolism, 2020).

Test: clinical
Parameters: species or system children with CPP
Conditions: human, in vivo, sc, 45 mg
Experimental: All samples were processed by a central laboratory (Syneos Health [formerly […] Health Clinique Inc.], Canada). A validated bioanalytical LC-MS/MS method with an LLOD of 0.025 ng/mL was used to measure serum leuprolide concentrations.

A Cmax of 212 ng/mL, a level at 672 h of 0.63 ng/mL and an AUC (burst phase) of 938 ng·h/mL were found for CCNC(=O)[C@@H]1CCCN1C(=O)[C@H](CCCNC(=N)N)NC(=O)[C@H](CC(C)C)NC(=O)[C@@H](CC(C)C)NC(=O)[C@H](Cc1ccc(O)cc1)NC(=O)[C@H](CO)NC(=O)[C@H](Cc1c[nH]c2ccccc12)NC(=O)[C@H](Cc1c[nH]cn1)NC(=O)[C@@H]1CCC(=O)N1 [leuprolide] in this work. It also gave an AUC (plateau phase) of 42300 ng·h/mL, a Tmax (T max, burst phase (time at which the Cmax is observed)) of 3.7 h and a Tmax (Time after injection at which leuprolide levels peaked) of 4 h.
